For this experiment, the target named is T1, NaV1.3 (Homo sapiens, UniProt Q9NY46).
T1 construct: expressed in transfected cells
Put plainly: VIPR optical membrane potential assay with electrical stimulation, HEK293 cells stably expressing NaV1.3. The class given is cell-based. The settings on record: compound activity for the NaV1.3 receptors. The method, then:
Compounds of the invention are useful as antagonists of voltage-gated sodium ion channels. Antagonist properties of test compounds were assessed as follows. Cells expressing the NaV of interest were placed into microtiter plates. After an incubation period, the cells were stained with fluorescent dyes sensitive to the transmembrane potential. The test compounds were added to the microtiter plate. The cells were stimulated with either chemical or electrical means to evoke a NaV dependent membrane potential change from unblocked channels, which was detected and measured with trans-membrane potential-sensitive dyes. Antagonists were detected as a decreased membrane potential response to the stimulus. The optical membrane potential assay utilized voltage-sensitive FRET sensors described by Gonzalez and Tsien (See, Gonzalez, J. E. and R. Y. Tsien (1995) “Voltage sensing by fluorescence resonance energy transfer in single cells” Biophys J 69(4): 1272-80, and Gonzalez, J. E. and R. Y. Tsien (1997) “Improved indicators of cell membrane potential that use fluorescence resonance energy transfer” Chem Biol 4(4): 269-77) in combination with instrumentation for measuring fluorescence changes such as the Voltage/Ion Probe Reader (VIPR®) (See, Gonzalez, J. E., K. Oades, et al. (1999) “Cell-based assays and instrumentation for screening ion-channel targets” Drug Discov Today 4(9): 431-439).
The following is an example of how NaV1.3 inhibition activity is measured using the optical membrane potential method #2. Other subtypes are performed in an analogous mode in a cell line expressing the NaV of interest.
HEK293 cells stably expressing NaV1.3 are plated into 96-well microtiter plates. After an appropriate incubation period, the cells are stained with the voltage sensitive dyes CC2-DMPE/DiSBAC2(3) as follows.
2×CC2-DMPE=20 μM CC2-DMPE: 10 mM CC2-DMPE is vortexed with an equivalent volume of 10% pluronic, followed by vortexing in required amount of HBSS containing 10 mM HEPES. Each cell plate will require 5 mL of 2×CC2-DMPE. 50 μL of 2×CC2-DMPE is added to wells containing washed cells, resulting in a 10 μM final staining concentration. The cells are stained for 30 minutes in the dark at RT.
2×DISBAC2(3) with ABSC1=6 μM DISBAC2(3) and 1 mM ABSC1: The required amount of 10 mM DISBAC2(3) is added to a 50 ml conical tube and mixed with 1 μL 10% pluronic for each mL of solution to be made and vortexed together. Then HBSS/HEPES is added to make up 2× solution. Finally, the ABSC1 is added.
The 2×DiSBAC2(3) solution can be used to solvate compound plates. Note that compound plates are made at 2× drug concentration. Wash stained plate again, leaving residual volume of 50 μL. Add 50 μL/well of the 2×DiSBAC2(3) w/ ABSC1. Stain for 30 minutes in the dark at RT.
The electrical stimulation instrument and methods of use are described in ION Channel Assay Methods PCT/US01/21652, herein incorporated by reference. The instrument comprises a microtiter plate handler, an optical system for exciting the coumarin dye while simultaneously recording the coumarin and oxonol emissions, a waveform generator, a current- or voltage-controlled amplifier, and a device for inserting electrodes in well. Under integrated computer control, this instrument passes user-programmed electrical stimulus protocols to cells within the wells of the microtiter plate.
Use the current-controlled amplifier to deliver stimulation wave pulses for 3 s. Two seconds of pre-stimulus recording are performed to obtain the un-stimulated intensities. Five seconds of post-stimulation recording are performed to examine the relaxation to the resting state.
Data are analyzed and reported as normalized ratios of background-subtracted emission intensities measured in the 460 nm and 580 nm channels. Background intensities are then subtracted from each assay channel. […]

SMILES strings stand for the structures. A value given as a limit tells only on which side of the number the result lay.

T1 sequence (Q9NY46 whole entry): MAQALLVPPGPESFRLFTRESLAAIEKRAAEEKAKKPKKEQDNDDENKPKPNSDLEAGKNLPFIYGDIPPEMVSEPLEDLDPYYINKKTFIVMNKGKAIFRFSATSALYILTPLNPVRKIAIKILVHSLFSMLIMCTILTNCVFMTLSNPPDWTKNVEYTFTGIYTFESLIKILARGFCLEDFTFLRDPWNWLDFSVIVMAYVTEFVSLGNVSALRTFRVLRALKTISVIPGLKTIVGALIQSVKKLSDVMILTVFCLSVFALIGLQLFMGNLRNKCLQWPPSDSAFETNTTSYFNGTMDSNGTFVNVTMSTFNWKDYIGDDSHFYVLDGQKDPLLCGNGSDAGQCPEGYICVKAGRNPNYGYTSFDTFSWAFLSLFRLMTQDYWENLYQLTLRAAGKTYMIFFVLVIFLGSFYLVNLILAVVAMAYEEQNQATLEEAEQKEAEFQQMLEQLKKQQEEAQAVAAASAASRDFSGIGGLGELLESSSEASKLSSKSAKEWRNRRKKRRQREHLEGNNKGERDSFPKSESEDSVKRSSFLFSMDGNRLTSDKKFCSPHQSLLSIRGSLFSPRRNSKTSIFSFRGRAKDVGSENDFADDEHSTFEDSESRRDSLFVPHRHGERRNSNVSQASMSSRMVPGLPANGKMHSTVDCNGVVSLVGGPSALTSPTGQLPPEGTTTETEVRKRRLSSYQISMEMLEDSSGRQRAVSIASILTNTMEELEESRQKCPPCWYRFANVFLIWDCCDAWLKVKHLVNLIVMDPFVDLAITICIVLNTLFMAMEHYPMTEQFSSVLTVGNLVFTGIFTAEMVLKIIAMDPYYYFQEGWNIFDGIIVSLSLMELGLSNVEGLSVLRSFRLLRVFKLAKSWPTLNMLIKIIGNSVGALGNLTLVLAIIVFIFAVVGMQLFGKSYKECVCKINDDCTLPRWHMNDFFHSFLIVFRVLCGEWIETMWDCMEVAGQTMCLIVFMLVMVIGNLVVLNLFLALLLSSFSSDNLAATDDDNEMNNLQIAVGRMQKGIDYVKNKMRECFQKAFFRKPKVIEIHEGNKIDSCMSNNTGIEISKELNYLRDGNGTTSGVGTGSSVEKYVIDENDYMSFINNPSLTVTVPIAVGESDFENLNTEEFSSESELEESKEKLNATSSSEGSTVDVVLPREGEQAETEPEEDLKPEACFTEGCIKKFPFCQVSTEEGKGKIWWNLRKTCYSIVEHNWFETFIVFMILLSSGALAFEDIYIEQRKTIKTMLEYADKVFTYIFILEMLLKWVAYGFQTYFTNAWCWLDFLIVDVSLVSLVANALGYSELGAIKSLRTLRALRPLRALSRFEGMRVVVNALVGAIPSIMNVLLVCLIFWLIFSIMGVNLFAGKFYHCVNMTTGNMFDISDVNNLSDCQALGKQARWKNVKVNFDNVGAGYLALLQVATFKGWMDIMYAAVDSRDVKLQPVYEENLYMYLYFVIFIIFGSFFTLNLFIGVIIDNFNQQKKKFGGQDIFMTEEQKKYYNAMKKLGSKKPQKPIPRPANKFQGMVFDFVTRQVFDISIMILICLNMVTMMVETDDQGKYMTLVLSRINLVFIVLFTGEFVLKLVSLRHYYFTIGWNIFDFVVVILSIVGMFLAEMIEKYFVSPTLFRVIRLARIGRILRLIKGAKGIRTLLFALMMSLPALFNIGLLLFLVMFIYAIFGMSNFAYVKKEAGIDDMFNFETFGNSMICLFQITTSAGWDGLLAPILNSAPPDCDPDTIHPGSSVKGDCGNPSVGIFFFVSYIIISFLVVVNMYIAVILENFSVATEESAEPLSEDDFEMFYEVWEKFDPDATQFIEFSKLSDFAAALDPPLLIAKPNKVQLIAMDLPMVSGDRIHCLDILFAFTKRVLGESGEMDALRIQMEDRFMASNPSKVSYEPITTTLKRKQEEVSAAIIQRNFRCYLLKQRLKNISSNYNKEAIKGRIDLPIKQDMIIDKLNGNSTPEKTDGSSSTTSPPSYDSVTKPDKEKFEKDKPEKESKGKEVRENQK

For the molecule `COC(=O)NS(=O)(=O)c1ccc(NC(=O)C2(c3ccc4c(c3)OCO4)CC2)cc1` [Compound 38], the IC50 – broadly, the concentration that inhibits the measured activity by half – is > 5 µM.
The value for `CCCCNC(=O)NS(=O)(=O)c1ccc(NC(=O)[C@@H](C)n2ccc3c(F)cccc32)cc1` [Compound 79] was > 5 µM; that for `C[C@H](C(=O)Nc1ccc(S(=O)(=O)NC(=O)Oc2ccc(F)cc2)cc1)n1ccc2c(F)cccc21` [Compound 29] was > 5 µM; that for `COC(=O)NS(=O)(=O)c1ccc(NC(=O)Cn2cc(C)c3cc(Cl)ccc32)cc1` [Compound 83] was > 5 µM.
Consider `COC(=O)NS(=O)(=O)c1ccc(N2CCN(C(=O)[C@@H](C)N3CCCc4cc(Cl)ccc43)CC2)cc1` [Compound 50], for which the IC50 was > 5 µM.
Consider `COC(=O)NS(=O)(=O)c1ccc(NC(=O)Cn2ccc3cc(F)c(F)cc32)cc1` [Compound 8], for which the IC50 is > 5 µM.
Take `COC(=O)NS(=O)(=O)c1ccc(NC(=O)[C@@H](CC(C)C)N2CCCc3cc(Cl)ccc32)cc1` [Compound 86]: the IC50 was in the range of 2 to 5 µM.
Consider `C[C@H](C(=O)Nc1ccc(S(=O)(=O)NC(=O)CC(C)(C)C)cc1)n1ccc2c(F)cccc21` [Compound 13], for which the IC50 was > 5 µM.
`COC(=O)NS(=O)(=O)c1ccc(NC(=O)[C@H](C)n2ccc3cccc(F)c32)cc1` [Compound 68]: the IC50 is > 5 µM.
The value for `C[C@H](C(=O)Nc1ccc(S(=O)(=O)NC(=O)NC(C)(C)C)cc1)n1ccc2c(F)cccc21` [Compound 54] was > 5 µM; that for `COC(=O)NS(=O)(=O)c1ccc(NC(=O)[C@@H](C)N2CCCc3ccccc32)cc1` [Compound 47] was > 5 µM; that for `CNC(=O)NS(=O)(=O)c1ccc(NC(=O)[C@@H](C)n2ccc3c(F)cccc32)cc1` [Compound 31, (R)-2-(4-fluoro-1H indol-1-yl)-N-(4-(N-(methylcarbamoyl)sulfamoyl)phenyl)propanamide] was > 5 µM.
As for `COC(=O)NS(=O)(=O)c1ccc(NC(=O)Cn2ccc3cccc(F)c32)cc1` [Compound 69], the half-maximal inhibitory concentration (IC50) is > 5 µM.
For `COC(=O)NS(=O)(=O)c1ccc(NC(=O)C(C)(C)n2ccc3c(F)cccc32)cc1` [Compound 85] the value was > 5 µM; for `COC(=O)NS(=O)(=O)c1ccc(NC(=O)[C@@H](CO)N2CCCc3cc(Cl)ccc32)cc1` [Compound 73], > 5 µM; for `COC(=O)NS(=O)(=O)c1ccc(NC(=O)[C@@H](C)n2ccc3ccccc32)cc1` [Compound 40], 2 to 5 µM.
For `COC(=O)NS(=O)(=O)c1ccc(NC(=O)Cn2ccc3ccc(OC)cc32)cc1` [Compound 7] the value was > 5 µM; for `COC(=O)NS(=O)(=O)c1ccc(NC(=O)[C@H](C)n2ccc3ccc(C(F)(F)F)cc32)cc1` [Compound 25], > 5 µM.
For `COC(=O)NS(=O)(=O)c1ccc(NC(=O)NCc2ccc(Cl)c(Cl)c2)cc1` [Compound 30, methyl 4-(3(3,4-dichlorobenzyl)ureido)phenylsulfonylcarbamate] the value was > 5 µM.
`COC(=O)NS(=O)(=O)c1ccc(NC(=O)c2cc3c(F)cccc3[nH]2)cc1` [Compound 15]: the concentration for half-maximal inhibition (IC50) was > 5 µM.
For `COC(=O)NS(=O)(=O)c1ccc(NC(=O)[C@@H](C)n2ccc3cccc(F)c32)cc1` [Compound 36] the value was > 5 µM.
In the case of `CCOC(=O)NS(=O)(=O)c1ccc(N2CCN(C(=O)[C@@H](C)N3CCCc4cc(F)ccc43)CC2)cc1` [Compound 41, (R)-ethyl 4-(4-(2-(6-fluoro-3,4-dihydroquinolin-1(2H)-yl)propanoyl)piperazin-1-yl)phenylsulfonylcarbamate], the 50% inhibitory concentration (IC50) was > 5 µM.
The value for `COC(=O)NS(=O)(=O)c1ccc(NC(=O)[C@H](C)N2CCCc3cc(Cl)ccc32)cc1` [Compound 75] was > 5 µM.
In the case of `COC(=O)NS(=O)(=O)c1ccc(NC(=O)Cn2ccc3c(C#N)cccc32)cc1` [Compound 44], the IC50 is > 5 µM.
Turning to `COC(=O)NS(=O)(=O)c1ccc(NC(=O)C(C)Oc2cccc(Cl)c2Cl)cc1` (stereo in doubt) [Compound 58, (R)-methyl 4-(2,3-dichlorophenoxy)propanamido) phenylsulfonylcarbamate], the IC50 was > 5 µM.
On to `CCC#CCOC(=O)NS(=O)(=O)c1ccc(NC(=O)[C@@H](C)n2ccc3c(F)cccc32)cc1` [Compound 76], for which the IC50 was > 5 µM.
As to `COC(=O)NS(=O)(=O)c1ccc(NC(=O)Cn2ccc3ccc(C(F)(F)F)cc32)cc1` [Compound 39], the IC50 is > 5 µM.
`COC(=O)NS(=O)(=O)c1ccc(NC(=O)Cn2ccc3cc(C)ccc32)cc1` [Compound 14]: the IC50 is > 5 µM.
As for `CC(=O)NS(=O)(=O)c1ccc(N)cc1` [Compound 45], the half-inhibitory concentration (IC50) was > 5 µM.
The value for `COC(=O)NS(=O)(=O)c1ccc(NC(=O)[C@H](C)N2CCCc3ccccc32)cc1` [Compound 84] was > 5 µM; that for `C[C@H](C(=O)Nc1ccc(S(=O)(=O)NC(=O)C2CCCC2)cc1)n1ccc2c(F)cccc21` [Compound 11, (R)—N-(4-(2-(4-fluoro-1H indol-1-yl)propanamido)phenylsulfonyl)cyclopentanecarboxamide] was > 5 µM.
Take `COC(=O)NS(=O)(=O)c1ccc(NC(=O)C(C)n2ccc3c(F)cccc32)cc1` (stereo not shown) [Compound 59]: the IC50 was < 2 µM.
For `COC(=O)NS(=O)(=O)c1ccc(NC(=O)Cn2ccc3ccc(Cl)cc32)cc1` [Compound 70] the value was > 5 µM.
For `COC(=O)NS(=O)(=O)c1ccc(NC(=O)Cn2ccc3cc(Cl)ccc32)cc1` [Compound 26] the value was > 5 µM; for `COC(=O)NS(=O)(=O)c1ccc(NC(=O)CCn2ccc3cc(Cl)ccc32)cc1` [Compound 51], > 5 µM.
Take `COC(=O)NS(=O)(=O)c1ccc(NC(=O)[C@@H](C)n2ccc3c(F)cccc32)cc1` [Compound 34]: the IC50 is < 2 µM.
With `COc1ccccc1C(=O)NS(=O)(=O)c1ccc(NC(=O)COc2ccnc3c(C(F)(F)F)cccc23)cc1` [Compound 49], the 50% inhibitory concentration (IC50) is > 5 µM.
On to `COC(=O)NS(=O)(=O)c1ccc(NC(=O)[C@@H](C)N2CCCc3cccc(Cl)c32)cc1` [Compound 62], for which the IC50 was > 5 µM.
Regarding `CC(=O)NS(=O)(=O)c1ccc(NC(=O)[C@@H](C)n2ccc3c(F)cccc32)cc1` [Compound 82], the IC50 was > 5 µM.
As to `COC(=O)NS(=O)(=O)c1ccc(NC(=O)[C@H](CC(C)C)n2ccc3c(F)cccc32)cc1` [Compound 77], the IC50 was > 5 µM.
The value for `C[C@H](C(=O)Nc1ccc(S(=O)(=O)NC(=O)N2CCN(C)CC2)cc1)n1ccc2c(F)cccc21` [Compound 57] was > 5 µM; that for `COC(=O)NS(=O)(=O)c1ccc(NC(=O)[C@@H](C)Oc2ccc(Cl)cc2C)cc1` [Compound 78] was > 5 µM; that for `COC(=O)NS(=O)(=O)c1ccc(NC(=O)COc2ccc(F)c(Cl)c2)cc1` [Compound 3] was > 5 µM.
The value for `COC(=O)NS(=O)(=O)c1ccc(NC(=O)COc2ccnc3c(C(F)(F)F)cccc23)cc1` [Compound 60] was > 5 µM.
For `COC(=O)NS(=O)(=O)c1ccc(NC(=O)C(C)Oc2ccc(Cl)cc2C)cc1` (stereo not shown) [Compound 35] the value was > 5 µM; for `COC(=O)NS(=O)(=O)c1ccc(NC(=O)Cn2ccc3cccc(Cl)c32)cc1` [Compound 28], > 5 µM; for `COC(=O)NS(=O)(=O)c1ccc(NC(=O)[C@H](C)N2CCCc3cc(F)ccc32)cc1` [Compound 67], > 5 µM.
Consider `COC(=O)NS(=O)(=O)c1ccc(NC(=O)CCc2ccc(OC)cc2)cc1` [Compound 48], for which the IC50 is > 5 µM.
With `COC(=O)NS(=O)(=O)c1ccc(NC(=O)c2ccccc2)cc1` [Compound 9], the IC50 was > 5 µM.
